Laboratory results: ChEMBL document CHEMBL1201862, “PubChem BioAssay data set” (2004)
One block for each compound: values may come before it. Activity calls are given as the source filed them.

Experiments:
[1] = cytotoxicity in HEK-293T NF-kB-Luc cells, dose response, cytotoxicity control for B/T-cell NF-kB inhibitor project, cell-based, uHTS hits (AID 489019); assay type: functional;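 also: IC50 reflects cytotoxicity as loss of cell viability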
[2] = molecular target: T1, Microphthalmia-associated transcription factor (Homo sapiens, UniProt O75030); experiment: TRPM1 promoter luciferase signal decrease, dose response, MITF inhibitor project, cell-based, SK-MEL-5, cherry-picked, set 3 (AID 493073); assay type: functional
T1 sequence (O75030 whole entry): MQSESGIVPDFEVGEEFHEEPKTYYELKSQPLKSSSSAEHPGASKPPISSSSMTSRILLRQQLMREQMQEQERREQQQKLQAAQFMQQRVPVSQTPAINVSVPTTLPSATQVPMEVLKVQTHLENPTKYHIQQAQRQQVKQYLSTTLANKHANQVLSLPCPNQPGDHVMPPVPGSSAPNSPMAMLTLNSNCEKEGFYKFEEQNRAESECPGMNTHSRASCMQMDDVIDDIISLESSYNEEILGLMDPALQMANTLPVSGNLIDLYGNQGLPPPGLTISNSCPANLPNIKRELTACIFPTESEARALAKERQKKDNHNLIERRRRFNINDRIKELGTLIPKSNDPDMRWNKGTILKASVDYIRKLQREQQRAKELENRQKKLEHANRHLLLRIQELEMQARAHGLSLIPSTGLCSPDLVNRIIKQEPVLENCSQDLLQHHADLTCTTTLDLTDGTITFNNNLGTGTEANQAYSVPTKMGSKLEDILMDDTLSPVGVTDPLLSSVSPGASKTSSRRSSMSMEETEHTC

[3] = molecular target: T2, Heat shock factor protein 1 (Mus musculus, UniProt P38532); experiment: inhibition of MG132-induced HSE-luciferase signal, confirmation, cell-based, NIH3T3, luminescence, dose retest (AID 2382); assay type: functional;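 also: NIH3T3 fibroblasts with HSF1-driven luciferase reporter stressed by proteasome inhibitor MG132; luminescence from HSF1-driven luciferase expression after 8 hours of MG132 stress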
T2 sequence (P38532 whole entry): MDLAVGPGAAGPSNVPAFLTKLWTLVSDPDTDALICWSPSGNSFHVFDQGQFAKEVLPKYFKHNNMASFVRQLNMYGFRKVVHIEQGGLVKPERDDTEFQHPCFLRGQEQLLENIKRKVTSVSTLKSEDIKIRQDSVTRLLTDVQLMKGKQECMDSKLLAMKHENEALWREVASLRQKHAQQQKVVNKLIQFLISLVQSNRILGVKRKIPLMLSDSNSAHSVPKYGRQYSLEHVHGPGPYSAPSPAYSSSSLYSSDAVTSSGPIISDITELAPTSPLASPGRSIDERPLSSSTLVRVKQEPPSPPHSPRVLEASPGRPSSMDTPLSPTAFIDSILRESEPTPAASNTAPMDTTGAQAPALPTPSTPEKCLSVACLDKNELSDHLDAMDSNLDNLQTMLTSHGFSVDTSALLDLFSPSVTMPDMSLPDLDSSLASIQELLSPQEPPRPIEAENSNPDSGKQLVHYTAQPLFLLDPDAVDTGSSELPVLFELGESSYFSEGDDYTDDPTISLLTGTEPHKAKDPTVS

[4] = human group III sPLA2 inhibitors, dose response, biochemical, QFRET, IC50 (AID 743457);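 also: green fluorescence rise as the enzyme cleaves BODIPY PC-A2 in liposomes; potency for inhibition of the enzyme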
[5] = non-specific cell cytotoxicity, dose response, cytotoxicity control for PAX8 inhibitor project, plate reader, dry powder samples (AID 743021); assay type: functional, cell-based
[6] = test system: Jurkat; experiment: antigen receptor-induced NF-kB inhibitors, dose response, Jurkat, luciferase reporter, luminescence, B- and T-cell (AID 489004); assay type: functional, cell-based; settings: Homo sapiens;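 also: NF-kB luciferase reporter Jurkat cells stimulated with PMA plus ionomycin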
[7] = molecular target: Paired box protein Pax-8 (Homo sapiens, UniProt Q06710); experiment: inhibitors of PAX8-driven TPO luciferase reporter, dose response, RMG-I cells, cherry-pick (AID 687027); assay type: functional, cell-based;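 also: luciferase reporter driven by Pax8 target thyroperoxidase promoter measured by SteadyGlo luminescence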
[8] = molecular target: T3, Tyrosine-protein phosphatase non-receptor type 22 (Homo sapiens, UniProt Q9Y2R2); assay type: functional
T3 sequence (Q9Y2R2 whole entry): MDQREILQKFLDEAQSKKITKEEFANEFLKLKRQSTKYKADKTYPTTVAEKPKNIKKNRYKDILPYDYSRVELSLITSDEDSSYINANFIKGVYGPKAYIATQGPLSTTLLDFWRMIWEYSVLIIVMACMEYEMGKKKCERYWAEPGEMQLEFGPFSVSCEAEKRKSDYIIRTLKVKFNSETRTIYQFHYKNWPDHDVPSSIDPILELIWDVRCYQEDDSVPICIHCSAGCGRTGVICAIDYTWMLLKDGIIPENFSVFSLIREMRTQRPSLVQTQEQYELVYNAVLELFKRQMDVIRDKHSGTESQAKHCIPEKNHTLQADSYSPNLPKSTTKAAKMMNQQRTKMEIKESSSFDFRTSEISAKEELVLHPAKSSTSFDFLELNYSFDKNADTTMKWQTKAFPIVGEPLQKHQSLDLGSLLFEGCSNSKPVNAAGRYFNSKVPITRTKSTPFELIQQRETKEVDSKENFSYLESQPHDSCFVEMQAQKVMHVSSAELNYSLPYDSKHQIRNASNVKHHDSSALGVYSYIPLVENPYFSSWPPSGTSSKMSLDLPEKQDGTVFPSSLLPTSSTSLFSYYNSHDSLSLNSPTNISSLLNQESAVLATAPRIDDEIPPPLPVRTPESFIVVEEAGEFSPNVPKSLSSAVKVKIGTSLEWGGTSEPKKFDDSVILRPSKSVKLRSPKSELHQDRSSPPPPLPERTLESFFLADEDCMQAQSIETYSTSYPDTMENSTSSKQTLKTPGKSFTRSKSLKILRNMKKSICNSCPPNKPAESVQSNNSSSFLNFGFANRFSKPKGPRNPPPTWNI

[9] = molecular target: T4, Tyrosine-protein phosphatase non-receptor type 7 (Homo sapiens, UniProt P35236); assay type: functional
T4 sequence (P35236 whole entry): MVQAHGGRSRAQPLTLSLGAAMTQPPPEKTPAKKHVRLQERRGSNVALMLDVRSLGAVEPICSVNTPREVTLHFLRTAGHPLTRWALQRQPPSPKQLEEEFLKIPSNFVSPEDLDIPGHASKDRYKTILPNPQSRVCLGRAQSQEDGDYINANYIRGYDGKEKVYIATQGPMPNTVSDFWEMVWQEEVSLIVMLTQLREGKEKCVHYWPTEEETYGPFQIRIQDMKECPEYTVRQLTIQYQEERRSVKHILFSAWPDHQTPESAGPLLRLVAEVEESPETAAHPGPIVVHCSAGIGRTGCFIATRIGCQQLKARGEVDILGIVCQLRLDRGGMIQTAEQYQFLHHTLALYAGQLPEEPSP

[10] = molecular target: T3, Tyrosine-protein phosphatase non-receptor type 22; assay type: functional; remark: listed apart in the source
[11] = molecular target: T5, Small ubiquitin-related modifier 1 (Homo sapiens, UniProt P63165); experiment: inhibitors of SUMO1 partner interactions, dose response, biochemical, FRET (AID 624383); assay type: functional; settings: read-out: IC50_Mean
[12] = molecular target: T5, Small ubiquitin-related modifier 1; experiment: inhibitors of SUMO1 peptide binding, dose response, biochemical, fluorescence polarization, uHTS hits (AID 624382); assay type: functional; settings: read-out: IC50_Mean
[13] = molecular target: T6, Cytochrome P450 1A2 (Homo sapiens, UniProt P05177);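 also: PubChem cytochrome P450 panel assay, CYP1A2 panel member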
T6 sequence (P05177 whole entry): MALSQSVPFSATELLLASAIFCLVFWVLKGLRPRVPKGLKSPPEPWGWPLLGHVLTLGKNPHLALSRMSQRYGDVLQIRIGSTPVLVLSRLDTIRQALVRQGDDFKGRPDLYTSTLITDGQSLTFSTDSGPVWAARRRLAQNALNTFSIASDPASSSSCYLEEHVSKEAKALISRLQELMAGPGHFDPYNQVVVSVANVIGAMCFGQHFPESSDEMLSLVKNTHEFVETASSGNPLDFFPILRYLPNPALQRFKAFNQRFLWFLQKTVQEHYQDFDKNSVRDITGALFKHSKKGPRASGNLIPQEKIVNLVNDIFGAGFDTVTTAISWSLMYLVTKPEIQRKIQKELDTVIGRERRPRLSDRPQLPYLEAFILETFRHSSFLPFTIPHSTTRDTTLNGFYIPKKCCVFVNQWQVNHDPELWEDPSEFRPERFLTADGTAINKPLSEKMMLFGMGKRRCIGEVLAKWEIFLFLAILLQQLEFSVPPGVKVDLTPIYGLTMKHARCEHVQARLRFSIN

[14] = molecular target: Cytochrome P450 3A4 (Homo sapiens, UniProt P08684);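 also: CYP3A4 tested as one member of a cytochrome P450 panel screen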
[15] = molecular target: SUMO E1/E2 (Homo sapiens, UniProt P63279+Q9UBE0+Q9UBT2); experiment: SAR analysis of SUMOylation using HTRF in an in-Vitro dose response assay. [Related pubchem assays (depositor defined):AID2006, AID2011, AID2018, AID2069, AID2658]; assay type: functional
[16] = molecular target: T6, Cytochrome P450 1A2; remark: listed apart in the source

Chain of Cytochrome P450 3A4 (P08684 whole entry): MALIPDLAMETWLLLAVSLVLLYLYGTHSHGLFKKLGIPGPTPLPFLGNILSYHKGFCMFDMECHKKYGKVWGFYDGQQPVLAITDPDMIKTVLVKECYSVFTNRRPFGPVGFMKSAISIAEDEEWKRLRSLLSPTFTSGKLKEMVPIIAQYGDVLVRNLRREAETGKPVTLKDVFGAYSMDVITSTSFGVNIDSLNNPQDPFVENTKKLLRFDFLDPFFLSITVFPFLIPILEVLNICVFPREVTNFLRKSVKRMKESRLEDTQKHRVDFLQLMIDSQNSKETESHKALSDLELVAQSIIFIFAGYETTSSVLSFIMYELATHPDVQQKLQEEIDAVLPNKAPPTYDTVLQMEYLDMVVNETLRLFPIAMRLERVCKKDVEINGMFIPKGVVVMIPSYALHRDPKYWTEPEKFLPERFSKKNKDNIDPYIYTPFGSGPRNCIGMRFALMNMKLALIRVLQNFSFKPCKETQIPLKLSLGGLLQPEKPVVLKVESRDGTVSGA
T5 sequence (P63165 whole entry): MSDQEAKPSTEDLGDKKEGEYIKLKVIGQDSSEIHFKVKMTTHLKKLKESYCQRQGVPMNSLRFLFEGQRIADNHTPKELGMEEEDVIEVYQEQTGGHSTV
Chain of SUMO E1/E2 (Q9UBE0 whole entry): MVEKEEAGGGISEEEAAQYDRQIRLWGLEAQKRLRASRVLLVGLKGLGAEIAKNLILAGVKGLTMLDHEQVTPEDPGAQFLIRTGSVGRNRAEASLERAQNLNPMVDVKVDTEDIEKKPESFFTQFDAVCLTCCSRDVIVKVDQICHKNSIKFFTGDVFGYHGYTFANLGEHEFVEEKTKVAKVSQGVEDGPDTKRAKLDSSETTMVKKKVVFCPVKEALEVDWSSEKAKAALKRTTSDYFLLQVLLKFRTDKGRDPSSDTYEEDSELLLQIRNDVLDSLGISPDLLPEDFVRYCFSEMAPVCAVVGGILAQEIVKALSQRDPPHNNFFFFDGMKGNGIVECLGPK
Chain of SUMO E1/E2 (Q9UBT2 whole entry): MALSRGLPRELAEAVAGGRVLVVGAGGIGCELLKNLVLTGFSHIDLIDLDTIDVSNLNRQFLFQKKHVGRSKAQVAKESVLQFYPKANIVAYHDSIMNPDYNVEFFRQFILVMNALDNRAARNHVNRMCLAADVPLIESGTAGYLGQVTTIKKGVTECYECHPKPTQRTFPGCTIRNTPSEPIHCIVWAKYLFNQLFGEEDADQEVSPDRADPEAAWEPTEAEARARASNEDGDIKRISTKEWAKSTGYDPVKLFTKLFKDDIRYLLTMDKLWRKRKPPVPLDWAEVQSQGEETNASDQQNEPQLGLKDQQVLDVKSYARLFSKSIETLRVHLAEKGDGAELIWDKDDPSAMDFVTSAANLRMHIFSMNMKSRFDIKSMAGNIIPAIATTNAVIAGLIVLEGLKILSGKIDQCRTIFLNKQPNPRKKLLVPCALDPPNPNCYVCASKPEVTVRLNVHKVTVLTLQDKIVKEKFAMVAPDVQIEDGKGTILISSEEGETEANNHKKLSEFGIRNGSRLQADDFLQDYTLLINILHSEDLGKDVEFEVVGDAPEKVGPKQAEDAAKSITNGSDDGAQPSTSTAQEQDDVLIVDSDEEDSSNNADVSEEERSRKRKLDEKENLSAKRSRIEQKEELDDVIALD
Chain of SUMO E1/E2 (P63279 whole entry): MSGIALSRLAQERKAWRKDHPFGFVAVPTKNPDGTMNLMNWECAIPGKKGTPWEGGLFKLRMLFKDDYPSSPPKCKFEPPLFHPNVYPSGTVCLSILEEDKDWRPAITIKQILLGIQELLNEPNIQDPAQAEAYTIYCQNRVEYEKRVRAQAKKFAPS
Chain of Paired box protein Pax-8 (Q06710 whole entry): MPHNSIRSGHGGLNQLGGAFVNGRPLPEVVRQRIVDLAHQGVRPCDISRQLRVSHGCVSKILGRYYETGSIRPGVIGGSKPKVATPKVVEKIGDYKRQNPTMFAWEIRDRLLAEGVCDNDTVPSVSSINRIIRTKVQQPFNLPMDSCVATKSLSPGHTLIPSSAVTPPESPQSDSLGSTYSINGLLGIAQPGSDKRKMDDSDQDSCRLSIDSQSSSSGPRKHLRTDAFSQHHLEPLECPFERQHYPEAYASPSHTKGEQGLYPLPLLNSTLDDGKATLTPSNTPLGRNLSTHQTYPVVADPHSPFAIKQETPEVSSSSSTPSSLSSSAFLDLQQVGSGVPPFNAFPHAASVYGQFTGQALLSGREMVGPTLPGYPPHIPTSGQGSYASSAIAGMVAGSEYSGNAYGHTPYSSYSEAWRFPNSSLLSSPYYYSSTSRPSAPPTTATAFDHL

SMILES: C/N=c1\scc(-c2ccccc2F)n1/N=C/c1ccc[nH]1
IC50 [1]: > 80 µM (inactive)
AC50 [2]: 0.019 µM (active)
EC50 [3]: < 0.16 µM (active)
IC50 [4]: 50.6 µM (inactive)
AC50 [5]: 44.3 µM (active)
IC50 [6]: 0.38 µM (active)
AC50 [7]: < 0.26 µM (active)

SMILES: CC(=O)c1ccc2c(c1)C1C(Cl)C(Sc3ccccc3[N+](=O)[O-])CC1C(C(=O)O)N2 (stereo unspecified)
IC50 [8]: 32 µM (active)
IC50 [9]: 58.2 µM (active)
IC50 [11]: 13.2 µM (active)
IC50 [10]: 57.9 µM (active)
IC50 [12]: > 66.6 µM (inactive)

SMILES: CCC(=O)O[C@H](CC(=O)[O-])C[N+](C)(C)C
AC50 [13]: inconclusive

SMILES: COc1ccc(CCN(C)CCC[C@@](C#N)(c2cc(OC)c(OC)c(OC)c2)C(C)C)cc1OC
AC50 [13]: inactive

SMILES: Clc1ccc2c(c1)C1C=CCC1C(c1ccccc1)N2 (stereo unspecified)
IC50 [15]: > 100 µM (inactive)

Next, values leading:

IC50 [8]: > 79.4 µM (inactive)
IC50 [9]: > 79.4 µM (inactive)
IC50 [10]: > 79.4 µM (inactive)
SMILES: COc1ccc2c(-c3ccccc3)cc(N3CCOCC3)nc2c1

AC50 [14]: inconclusive
SMILES: Cn1ncc2c(Nc3cccc(C(=O)O)c3)ncnc21

AC50 [14]: inconclusive
AC50 [16]: 1.26 µM (inconclusive)
SMILES: COC(=O)N1CCC2(CC1)CN(c1ccc(-c3ccccc3)cc1)C2
